tested on: NCI-H358 cells (express KRas G12C), Phospho-ERK; test: Cellular inhibition of KRas G12C: Phospho-ERK in NCI-H358 cells; assay type: cell-based; conditions: Homo sapiens, NCI-H358, 3 h
Description: The cellular inhibition of KRAs G12C by exemplary compounds of the present invention was determined by measuring the amount of a downstream marker of KRas activity, phosphorylated ERK (“Phospho-ERK”).
Cells were plated in poly-D-Lysine coated 96-well plates at a concentration of 50,000 cells/well and allowed to attach for 8-12 hours. Diluted compounds were then added at a final concentration of 0.5% DMSO. After 3 hours, the medium was removed, 150 μL of 4% formaldehyde was added and the plates were incubated for 20 minutes. The plates were washed with PBS, and permeabilized using 150 μL of ice cold 100% methanol for 10 minutes. Non-specific antibody binding to the plates was blocked using 100 μL Licor Blocking Buffer (Li-Cor Biotechnology, Lincoln Nebr.) for 1 hour at room temperature. Positive control samples and samples lacking cells were parallel processed with test samples as standards.
The amount Phospho-ERK was determined using an antibody specific for the phosphorylated form of ERK and compared to the amount of GAPDH. […] The plates were incubated for 2 hours at room temperature. The plates were washed with PBS+0.05% Tween 20.
Secondary antibodies used to visualize primary antibodies were added as follows: Anti-rabbit-680 diluted 1:1000 and Anti-mouse-800 diluted 1:1000 in Licor Block+0.05% Tween 20 and incubated for 1 hour at room temperature. The plates were washed with PBS+0.05% Tween 20. A 100 μL aliquot of PBS was added to each well and the plates were read on a LICOR AERIUS plate reader.
The pERK(Thr202/Tyr204) signal was normalized with the GAPDH signal and percent of DMSO control values were calculated. IC50 values were generated using a 4 parameter fit of the dose response curve. Key: “A”≥0.0001−≤1 μM; and “B”>1 μM.

Compound	IC50 [nM]
C=CC(=O)N1CCN(c2nc(OC[C@@H]3CCCN3C)nc3c2CCN(c2cccc4ccccc24)C3)CC1 [Example 200, (S)-1-(4-(2-((1-methylpyrrolidin-2-yl)methoxy)-7-(naphthalen-1-yl)-5,6,7,8-tetrahydropyrido[3,4-d]pyrimidin-4-yl)piperazin-1-yl)prop-2-en-1-one]	> 1000
C=CC(=O)N1CCN(c2nc(OC[C@@H]3CCCN3C)nc3c2CCN(c2cc(O)cc4ccccc24)C3)CC1 [Example 127, (S)-1-(4-(7-(3-hydroxynaphthalen-1-yl)-2-((1-methylpyrrolidin-2-yl)methoxy)-5,6,7,8-tetrahydropyrido[3,4-d]pyrimidin-4-yl)piperazin-1-yl)prop-2-en-1-one]	0.1 to 1000
C=CC(=O)N1CCN(c2nc(OC[C@@H]3CCCN3C)nc3c2CCN(c2cccc4cccc(Cl)c24)C3)CC1CC#N (stereo partly drawn) [Example 310, 2-(1-acryloyl-4-(7-(8-chloronaphthalen-1-yl)-2-(((S)-1-methylpyrrolidin-2-yl)methoxy)-5,6,7,8-tetrahydropyrido[3,4-d]pyrimidin-4-yl)piperazin-2-yl)acetonitrile]	0.1 to 1000
C=CC(=O)N1CCN(c2nc(OC[C@@H]3CCCN3C)nc3c2CCN(c2cccc4cccc(Cl)c24)C3)C[C@@H]1CC#N [Example 331, 2-[(2S)-4-[7-(8-chloro-1-naphthyl)-2-[[(2S)-1-methylpyrrolidin-2-yl]methoxy]-6,8-dihydro-5H-pyrido[3,4-d]pyrimidin-4-yl]-1-prop-2-enoyl-piperazin-2-yl]acetonitrile]	0.1 to 1000
C=CC(=O)N1CCN(c2nc(OC[C@H]3CCCN3C)nc3c2CCN(c2cc(O)cc4ccccc24)C3)CC1 [Example 187, (R)-1-(4-(7-(3-hydroxynaphthalen-1-yl)-2-((1-methylpyrrolidin-2-yl)methoxy)-5,6,7,8-tetrahydropyrido[3,4-d]pyrimidin-4-yl)piperazin-1-yl)prop-2-en-1-one]	0.1 to 1000
C=CC(=O)N1CCN(c2nc(OC[C@]3(C)CCCN3C)nc3c2CCN(c2cccc4ccccc24)C3)CC1CC#N (stereo partly drawn) [Example 251, 2-(1-acryloyl-4-(2-(((S)-1,2-dimethylpyrrolidin-2-yl)methoxy)-7-(naphthalen-1-yl)-5,6,7,8-tetrahydropyrido[3,4-d]pyrimidin-4-yl)piperazin-2-yl)acetonitrile]	0.1 to 1000

same assay, conditions: Homo sapiens; pERK(Thr202/Tyr204) normalized with GAPDH; NCI-H358 cells; 3 hours; read-out: IC50

Compound	IC50 [nM]
C=CC(=O)N1CCN(c2nc(OC[C@@H]3CCCN3C)nc3c2CCN(c2cccc4cccc(OC)c24)C3)C[C@@H]1CC#N [Example 463, 2-((S)-1-acryloyl-4-(7-(8-methoxynaphthalen-1-yl)-2-(((S)-1-methylpyrrolidin-2-yl)methoxy)-5,6,7,8-tetrahydropyrido[3,4-d]pyrimidin-4-yl)piperazin-2-yl)acetonitrile]	> 1000
C=CC(=O)N1CCN(c2nc(OC[C@@H]3CCCN3C)nc3c2CCN(c2cccc4cccc(C#N)c24)C3)C[C@@H]1CC#N [Example 464, 8-(4-((S)-4-acryloyl-3-(cyanomethyl)piperazin-1-yl)-2-(((S)-1-methylpyrrolidin-2-yl)methoxy)-5,8-dihydropyrido[3,4-d]pyrimidin-7(6H)-yl)-1-naphthonitrile]	0.1 to 1000
CC#CC(=O)N1CCN(c2nc(OC[C@@H]3CCCN3C)nc3c2CCN(c2cccc4ccccc24)C3)CC1CC#N (stereo partly drawn) [Example 242, 2-(1-(but-2-ynoyl)-4-(2-(((S)-1-methylpyrrolidin-2-yl)methoxy)-7-(naphthalen-1-yl)-5,6,7,8-tetrahydropyrido[3,4-d]pyrimidin-4-yl)piperazin-2-yl)acetonitrile]	0.1 to 1000

same assay, conditions: pERK(Thr202/Tyr204) normalized with GAPDH; NCI-H358 cells; 3 hours; read-out: IC50

Compound	IC50 [nM]
C=CC(=O)N1CCN(c2nc(OC[C@@H]3CCCN3C)nc3c2CCN(c2cccc(C)c2C(F)(F)F)C3)C[C@@H]1CC#N [Example 392, 2-((S)-1-acryloyl-4-(7-(3-methyl-2-(trifluoromethyl)phenyl)-2-(((S)-1-methylpyrrolidin-2-yl)methoxy)-5,6,7,8-tetrahydropyrido[3,4-d]pyrimidin-4-yl)piperazin-2-yl)acetonitrile]	0.1 to 1000

Source: patent US10125134B2 (Mirati Therapeutics, Inc., priority 2016, dated 2018)
